Experimental data reported in patent EP0609289B1, “IMIDAZOLE DERIVATIVES AND PHARMACEUTICAL COMPOSITIONS CONTAINING THE SAME” (THE UPJOHN COMPANY, priority 1991, dated 1993).

Legend:
[1] = test system: angiotensin II constriction in an isolated rabbit thoracic aorta; assay: Antagonism to angiotensin II constriction in an isolated rabbit thoracic aorta (test 3); conditions: test compound 10^-6 M for 20 minutes
Experimental: 3) Antagonism to angiotensin II constriction in an isolated rabbit thoracic aorta
A rectangular strip-like sample of thoracic aorta isolated from an anaesthetized rabbit was prepared, and the sample was suspended at 2.0 g of loaded tension in a Magnus tube filled with Krebs-Henseleitoid nutrition solution which was well aerated with 95% O2-5% CO2, and the constriction tension was measured using an isometric transducer. After the tension of the sample at rest became stable, accumulative administration of angiotensin II was carried out to obtain a concentration-action curve. Thereafter, the sample was washed with the same nutrition solution, then treated with test compound (10^-6 M) for 20 minutes to obtain again a concentration-action curve of angiotensin II. The results were obtained as followed: generated maximum tension at the first accumulative administration of angiotensin II was regarded as 100 %, and the 50 % effective concentration (ED50) was obtained in the presence or absence of the test compound, and pA2 value was calculated according to the following equations: • pA2=-logKB KB=C/{(A'/A)-1} • C; concentration of the test compound (M) • A'; ED50 in the presence of test compound (M) • A; ED50 in the absence of the test compound (M)

Angiotensin II receptor = assay: In vitro angiotensin II mesenteric artery receptor binding assay (test 1); conditions: rat mesenteric artery membrane fraction, 0.2 nM 125I-Ang II, 22°C, 90 minutes
Experimental: I) In vitro angiotensin II mesenteric artery receptor binding assay
According to the method (1) by Gunther et al., a membrane fraction was prepared from mesenteric artery of male rat, […] protein equivalent of it and 0.2 nM ^125I-Ang II as well as various concentrations of test compounds were incubated at 22°C for 90 minutes in an incubation buffer (50 mM Tris-HCl, 120 mM NaCl, 5 mM MgCl2. 0.25% bovine serum albumin, pH 7.2) (reaction volume; 200 µl). The incubated was cooled, and the reaction was stopped by addition of ice-cooled phosphate buffer (10 mM phosphate, 140 mM NaCI, pH 7.4, hereinafter referred to as PBS), and then the reaction solution was filtered through a glass fiber filter (Whatman CF/B), the filter was washed, dried, and then the radioactivity of captured ^125I-angiotensin II which bound to the receptor was measured by a γ-counter. Non-specific bound amount was obtained from the reaction in the presence of 1 µM of unlabeled angiotensin II. […] Res., 17:278-286, 1980].

[2] = test system: blood pressure increase by angiotensin II; assay: Antagonism to blood pressure increase by angiotensin II in a spine destroyed (pithed) rat (test 4); format: in vivo, Wistar rat; conditions: intravenous administration, 3µg/kg angiotensin II, read-out: Inhibition of blood pressure increase by angiotensin II in pithed rat ED50(mg/kg) (test 4)
Source text: 4) Antagonism to blood pressure increasing by angiotensin II in a spine destroyed rat
Wistar rat anaesthetized with pentobarbital was fixed at dorsal position, and a cannula for measuring blood pressure was inserted into sinister arteria carotis communis, and a cannula for administration of the test compound into dexter external jugular vein and a cannula for administration of angiotensin II into sinister external jugular vein, ambilateral nervus vagus was cut, and artificial respiration was carried out. A thin bar made of metal was stabbed into spinal column through sinister orbita to destroy spine. Blood pressure was recorded on polygraph via pressure transducer from an arterial cannula. After blood pressure was stable for more than 30 min., 3µg/kg of angiotensin II was administered intravenously four times every 15 min, and every 5 min. before the administration of angiotensin II from the second administration onward, a solvent, a lower dose of the test compound, and a higher dose of the test compound were administered intravenously in this order to observe the blood pressure increasing response by angiotensin II. ED50 values were calculated from the inhibiting rate when the first blood pressure increase by angiotensin II was regarded as 100 %.

`CCCc1nc2c(=O)n3n(c(=O)c2n1Cc1ccc(-c2ccccc2-c2nn[nH]n2)cc1)CCCC3` [Compound No. 46, 2-n-propyl-5,6,7,8-tetrahydro-1-[(2'-(1H-tetrazol-5-yl)biphenyl-4-yl)methyl]-1H-1,3,4a,8a-tetraza-cyclopentanaphthalene-4,9-dione] was tested, and the “Inhibition of rabbit aorta constriction pA2 (test 3)” value (“Inhibition” below) [1] was 8.95 and the IC50 (Angiotensin II receptor) was 3.3 nM.

In the case of `CCCCc1nc2c(=O)n3n(c(=O)c2n1Cc1ccc(-c2ccccc2-c2nn[nH]n2)cc1)CC(C)C(C)C3` (centres unmarked) [Compound No. 51, 2-n-butyl-6,7-dimethyl-5,6,7,8-tetrahydro-1-[(2'-(1H-tetrazol-5-yl)biphenyl-4-yl)methyl]-1H-1,3,4a,8a-tetraza-cyclopentanaphthalene-4,9-dione], the “Inhibition” value [1] is reported as 9.04, the ED50 [2] is reported as 0.65 mg/kg and the IC50 (Angiotensin II receptor) is reported as 4.6 nM.

For `CCCCc1nc2c(=O)n3n(c(=O)c2n1Cc1ccc(-c2ccccc2-c2nn[nH]n2)cc1)CC=CC3` [Compound No. 71, 2-n-butyl-5,8-dihydro-1-[(2'-(1H-tetrazol-5-yl)biphenyl-4-yl)methyl]-1H-1,3,4a,8a-tetraza-cyclopentanaphthalene-4,9-dione], the “Inhibition” value [1] was 9.09 and the IC50 (Angiotensin II receptor) was 7 nM.

`CCCc1nc2c(=O)n3n(c(=O)c2n1Cc1ccc(-c2ccccc2-c2nn[nH]n2)cc1)C1C=CC3CC1` (centres unmarked) [Compound No. 105, 5,8-dihydro-5,8-ethano-2-n-propyl-1-[(2'-(1H-tetrazol-5-yl)biphenyl-4-yl)methyl]-1H-1,3,4a,8a-tetraza-cyclopentanaphthalene-4,9-dione] was tested, and the “Inhibition” value [1] was 9.42, the ED50 [2] was 0.1 mg/kg and the IC50 (Angiotensin II receptor) was 1.5 nM.

With `CCCc1nc2c(=O)n3n(c(=O)c2n1Cc1ccc(-c2ccccc2-c2nn[nH]n2)cc1)C1CCC3CC1` [Compound No. 108, 5,8-ethano-2-n-propyl-5,6,7,8-tetrahydro-1-[(2'-(1H-tetrazol-5-yl)biphenyl-4-yl)methyl]-1H-1,3,4a,8a-tetraza-cyclopentanaphthalene-4,9-dione] the “Inhibition” value [1] was 9.53, the ED50 [2] was 0.069 mg/kg and the IC50 (Angiotensin II receptor) was 1.9 nM.

In the case of `CCCCc1nc2c(=O)n3n(c(=O)c2n1Cc1ccc(-c2ccccc2-c2nn[nH]n2)cc1)C1CCC3CC1` [Compound No. 109, 2-n-butyl-5,8-ethano-5,6,7,8-tetrahydro-1-[(2'-(1H-tetrazol-5-yl)biphenyl-4-yl)methyl]-1H-1,3,4a,8a-tetraza-cyclopentanaphthalene-4,9-dione], the “Inhibition” value [1] is reported as 9.49, the ED50 [2] is reported as 0.21 mg/kg and the IC50 (Angiotensin II receptor) is reported as 2.8 nM.

With `CCCc1nc2c(=O)n3n(c(=O)c2n1Cc1ccc(-c2ccccc2-c2nn[nH]n2)cc1)C(C)CCC3C(=O)O` (centres unmarked) [Compound No. 111, 4,9-dioxo-8-methyl-2-n-propyl-5,6,7,8-tetrahydro-1-[(2'-(1H-tetrazol-5-yl)biphenyl-4-yl)methyl]-1H-1,3,4a,8a-tetraza-cyclopentanaphthalene-5-carboxylic acid] the “Inhibition” value [1] was 9.01, the ED50 [2] was 0.51 mg/kg and the IC50 (Angiotensin II receptor) was 21 nM.

With `CCCc1nc2c(=O)n3n(c(=O)c2n1Cc1ccc(-c2ccccc2-c2nn[nH]n2)cc1)C(C)CCC3C(=O)OCC` (centres unmarked) [Compound No. 139, ethyl 4,9-dioxo-8-methyl-2-n-propyl-5,6,7,8-tetrahydro-1-[(2'-(1H-tetrazol-5-yl)biphenyl-4-yl)methyl]-1H-1,3,4a,8a-tetraza-cyclopentanaphthalene-5-carboxylate] the “Inhibition” value [1] was 10.63, the ED50 [2] was 0.038 mg/kg and the IC50 (Angiotensin II receptor) was 1.9 nM.

In the case of `CCCc1nc2c(=O)n3n(c(=O)c2n1Cc1ccc(-c2ccccc2-c2nn[nH]n2)cc1)C(C)CCC3C(=O)N(CC)CC` (centres unmarked) [Compound No. 203, 4,9-dioxo-8-methyl-2-n-propyl-5,6,7,8-tetrahydro-1-[{2'-(1H-tetrazol-5-yl)biphenyl-4-yl}methyl]-1H-1,3,4a,8a-tetraza-cyclopentanaphthalene-5-carboxy-N,N-diethylamide], the “Inhibition” value [1] is reported as 10.0 and the IC50 (Angiotensin II receptor) is reported as 1.9 nM.

For `CCCc1nc2c(=O)n3n(c(=O)c2n1Cc1ccc(-c2ccccc2-c2nnn[nH]2)cc1)C(C)CCC3C(=O)NC(C)(C)C` (centres unmarked) [Compound No. 207, 4,9-dioxo-8-methyl-2-n-propyl-5,6,7,8-tetrahydro-1-[{2'-(1H-tetrazol-5-yl)biphenyl-4-yl}methyl]-1H-1,3,4a,8a-tetraza-cyclopentanaphthalene-5-carboxy-N-t-butylamide], the “Inhibition” value [1] was 10.1, the ED50 [2] was 0.033 mg/kg and the IC50 (Angiotensin II receptor) was 3.9 nM.

For `CCCCc1nc2c(=O)n3n(c(=O)c2n1Cc1ccc(-c2ccccc2-c2nnn[nH]2)cc1)C1CCC3(CO)CC1` [Compound No. 220, 2-n-butyl-5,8-ethano-5-hydroxymethyl-5,6,7,8-tetrahydro-1-[{2'-(1H-tetrazol-5-yl)biphenyl-4-yl}methyl]-1H-1,3,4a,8a-tetraza-cyclopentanaphthalene-4,9-dione], the “Inhibition” value [1] was 9.93, the ED50 [2] was 0.27 mg/kg and the IC50 (Angiotensin II receptor) was 2.6 nM.

With `CCCc1nc2c(=O)n3n(c(=O)c2n1Cc1ccc(-c2ccccc2-c2nnn[nH]2)cc1)C1CCC3(C(=O)N(CC)CC)CC1` [Compound No. 231, 4,9-dioxo-5,8-ethano-2-n-propyl-5,6,7,8-tetrahydro-1-[{2'-(1H-tetrazol-5-yl)biphenyl-4-yl}methyl]-1H-1,3,4a,8a-tetraza-cyclopentanaphthalene-5-carboxy-N,N-diethylamide] the ED50 [2] was 0.074 mg/kg and the IC50 (Angiotensin II receptor) was 9.8 nM.

Compound `CCCCc1nc2c(=O)n3n(c(=O)c2n1Cc1ccc(-c2ccccc2-c2nn[nH]n2)cc1)C1CCC3(C(=O)NC(C)(C)C)CC1` [Compound No. 236, 2-n-butyl-4,9-dioxo-5,8-ethano-5,6,7,8-tetrahydro-1-[{2'-(1H-tetrazol-5-yl)biphenyl-4-yl}methyl]-1H-1,3,4a,8a-tetraza-cyclopentanaphthalene-5-carboxy-N-t-butylamide] has an ED50 [2] of 0.11 mg/kg and an IC50 (Angiotensin II receptor) of 32 nM.

In the case of `CCCc1nc2c(n1Cc1ccc(-c3ccccc3-c3nn[nH]n3)cc1)C(=O)N1CCCCN1C2` [Compound No. 366, 2-n-propyl-5,6,7,8-tetrahydro-1-[{2'-(1H-tetrazol-5-yl)biphenyl-4-yl}methyl]-1H,4H-1,3,4a,8a-tetraza-cyclopentanaphthalene-9-one], the “Inhibition” value [1] is reported as 9.32 and the IC50 (Angiotensin II receptor) is reported as 32 nM.

For `CCCc1nc2c(n1Cc1ccc(-c3ccccc3-c3nn[nH]n3)cc1)C(=O)N1C(C)CCC(C)N1C2` (centres unmarked) [Compound No. 430, 5,8-dimethyl-2-n-propyl-5,6,7,8-tetrahydro-1-[{2'-(1H-tetrazol-5-yl)biphenyl-4-yl}methyl]-1H,4H-1,3,4a,8a-tetraza-cyclopentanaphthalene-9-one], the “Inhibition” value [1] was 10.04 and the IC50 (Angiotensin II receptor) was 3.9 nM.

`CCCCc1nc2c(=O)n3n(c(=O)c2n1Cc1ccc(-c2ccccc2-c2nn[nH]n2)cc1)CC(C)=C(C)C3` [compound 68, 2-n-butyl-5,8-dihydro-6,7-dimethyl-1-[(2'-(1H-tetrazol-5-yl)biphenyl-4-yl)methyl]-1H-1,3,4a,8a-tetraza-cyclopentanaphthalene-4,9-dione] gave an ED50 [2] of 0.56 mg/kg and an IC50 (Angiotensin II receptor) of 8.1 nM.

With `CCCCc1nc2c(=O)n3n(c(=O)c2n1Cc1ccc(-c2ccccc2-c2nn[nH]n2)cc1)C1C=CC3CC1` (centres unmarked) [compound 106, 2-n-butyl-5,8-dihydro-5,8-ethano-1-[(2'-(1H-tetrazol-5-yl)biphenyl-4-yl)methyl]-1H-1,3,4a,8a-tetraza-cyclopentanaphthalene-4,9-dione] the “Inhibition” value [1] was 9.2 and the IC50 (Angiotensin II receptor) was 3.8 nM.

For `CCCCc1nc2c(=O)n3n(c(=O)c2n1Cc1ccc(-c2ccccc2-c2nn[nH]n2)cc1)C(C)CCC3C(=O)OCC` (centres unmarked) [compound 169, ethyl 2-n-butyl-4,9-dioxo-8-methyl-5,6,7,8-tetrahydro-1-[{2'-(1H-tetrazol-5-yl)biphenyl-4-yl}methyl]-1H-1,3,4a,8a-tetraza-cyclopentanaphthalene-5-carboxylate], the “Inhibition” value [1] was 10.19 and the IC50 (Angiotensin II receptor) was 1.3 nM.
